Patent US20260000685A1, “PHARMACEUTICAL COMPOSITION FOR PREVENTING OR TREATING DEGENERATIVE BRAIN DISEASES, COMPRISING CANNABINOIDS AS ACTIVE INGREDIENT, AND USES THEREOF” (NEOCANNBIO CO., LTD., priority 2022, published 2026)

What was measured:
[1] = tested on: Alzheimer's animal model (Aβ1-42 treated mice); assay: Object location test (OLT) in Aβ1-42 Alzheimer's animal model; type: in vivo, ICR mice; details: compared to mice treated with only Aβ1-42; FIG. 14
Protocol: (§1) Female ICR mice (8 weeks old) used in the experiment were purchased from Coretech (Pyeongtaek, Korea). Mice were housed in the animal care facility of the Korea Institute of Science and Technology (KIST) (temperature 22±2° C., humidity 40-60%, 12-hour light/dark cycle). Mice were housed in an environment with free access to food and water. All animal experiments were conducted in accordance with the protocol approval of the Animal Ethics Committee of our institution.
(§2) Next, to create an animal model, mice were randomly selected and divided into four groups as follows: PBS treated group (PBS+PBS), Aβ1-42 treated group (Aβ1-42 +PBS) (Alzheimer's animal model), CBDA treated group (Δβ1-42+CBDA (6.25 µM, 3 μL/mouse)), and THCA treated group (Δβ1-42+THCA (12.5 μM, 3 μL/mouse)).
(§3) After anesthetizing the isolated mice by intraperitoneal (i.p.) injection of avertin (250 mg/kg), the mice were fixed in a stereotaxic apparatus, and CBDA, THCA, Aβ1-42, or PBS (3 μl/15 min/mouse) were gradually delivered to the hippocampus using a Hamilton syringe (coordinates of bregma: mediolateral (ML)=1.30 mm, anteroposterior (AP)=−2.00 mm, dorsoventral=−2.20 mm).
(§4) First, the Novel Object Recognition Test (NOR) was conducted to examine a natural tendency of the experimental mice to explore novel stimuli. For this purpose, during the habituation session conducted 2 days before the test, the mice were allowed to explore the test environment consisting of an opaque custom-made Plexiglas box (35 cm×45 cm×25 cm) for 10 minutes. The sample object phase was conducted 24 hours later. Two identical white circular cylinders (sample objects) were placed on opposite edges of the test environment, and mice were given access to the objects for 10 minutes. After 4 hours (novel object stage), one of the sample objects in the test environment was replaced with a similarly sized novel object (colored miniature animal), and the mouse was allowed to contact this novel arrangement for 5 minutes. The time when the mouse's nose stayed <1 cm away from the object was considered the time the mouse explored the object, excluding the time when the mouse stood on the object. The identification rate was calculated as the time spent exploring the novel object relative to the time spent exploring the two objects.
Additionally, for the object location test (OLT), it was conducted in the same manner as the novel object recognition test described above, but on the last day of the object location test, one of the two sample objects was moved to a different location and the test was conducted.

[2] = tested on: primary cortical neuron cells; assay: Intracellular calcium concentration in neuronal cells (fluo-4 AM fluorescence imaging); type: cell-based; details: CBDA (6.25 μM), THCA (12.5 μM), THC (12.5 μM) with Aβ1-42 (5 μM), 24 hours; compared to Aβ1-42 alone; FIG. 8 and 9
Protocol: Specifically, primary cortical neuron cells were seeded in 96-wells at 5×10^5 cells per well and cultured for 6 days. […] Next, to measure the concentration of calcium ions in neuronal cells by detecting Ca^2+ using fluorescence imaging, the cells were washed with PBS and treated with 10 μM Ca^2+ indicator fluo-4 AM (Thermo) for […]. The stained sections were washed with PBS, covered with Prolong Gold Antifide Reagent (Invitrogen, Carlsbad, CA, USA) including DAPI nuclear stain, and observed using a microscope (Carl Zeiss, Oberkochen, Germany). Fluo-4 AM fluorescence signal intensity was measured using the Image J analysis program (National Institute of Health, Bethesda, […], USA).

[3] = tested on: p-TrkB (Tyrosine receptor kinase B); assay: Western blot of p-TrkB in hippocampal tissues of animal model; type: in vivo, ICR mice; details: day 19; compared to Aβ1-42 treated group; FIG. 17
Protocol: (§5) To conduct Western blotting, tissues were homogenized in radioimmunoprecipitation assay buffer (Cell Signaling) to acquire tissue lysates. Tissue protein concentrations were determined using the Bio-Rad protein assay (Bio-Rad, Hercules, CA, USA), and Western blot analysis was conducted using 80-120 μg of protein. Next, the Western blotting samples prepared using the proteins were separated using 12% SDS-PAGE and transferred to a polyvinylidene fluoride membrane (PVDF) (Merck Millipore, Burlington, MA, USA; 0.4 μm). The PVDF was blocked with tris-buffered saline including 5% bovine serum albumin and Tween-20, and incubated with primary antibodies overnight at 4° C. After primary antibody incubation, the samples were incubated with HRP-conjugated secondary antibody (Sigma; 1:5000) for 1 hour at room temperature, and immunodetection was conducted using an enhanced chemiluminescence detection kit (GE Healthcare, Chicago, IL, USA).
(§6) Specifically, hippocampal tissues were acquired on day 19 from the animal models created in Example 7 above (PBS treated group, Aβ1-42 treated group, CBDA treated group, and THCA treated group), and Western blot analysis was conducted on the hippocampal tissues to evaluate the expression levels of BDNF, p-CREB, and p-TrKB.

[4] = tested on: BDNF (brain-derived neurotrophic factor); assay: Western blot of BDNF in hippocampal tissues of animal model; type: in vivo, ICR mice; details: day 19; compared to Aβ1-42 treated group; FIG. 17
Protocol: as §5, §6

[5] = tested on: Alzheimer's animal model (Aβ1-42 treated mice); assay: Novel object recognition test (NOR) in Aβ1-42 Alzheimer's animal model; type: in vivo, ICR mice; details: compared to mice treated with only Aβ1-42; FIG. 14
Protocol: as §1, §2, §3, §4

[6] = tested on: APP (Amyloid Precursor Protein); assay: Western blotting of APP expression in Aβ1-42-treated primary neuronal cells; type: cell-based, ICR mice; details: CBDA (6 μM) or THCA (5 μM), with Aβ1-42 (5 μM), 24 hours; FIG. 6
Protocol: (§7) Specifically, primary neuronal cells derived from ICR mice were cultured for 6 days, and then treated with CBDA, THCA, THC, or CBN compounds while treating with Aβ1-42 (5 μM), and treated together for 24 hours. Next, Western blotting was conducted to confirm the expression levels of APP (Amyloid Precursor Protein), polymeric Aβ, and oligomeric AB in the cells.
as §5

[7] = tested on: amyloid beta (Aβ); assay: Western blotting of Aβ expression in Aβ1-42-treated primary neuronal cells; type: cell-based, ICR mice; details: with Aβ1-42 (5 μM), 24 hours; for expression level of oligomeric Aβ / expression level of polymeric Aβ: CBDA (6 μM) or THCA (5 μM), FIG. 6; for expression level of AB: compared to Aβ1-42 alone, FIG. 5
Protocol: as §7, §5

[8] = tested on: primary neuronal cells; assay: Inhibition of Aβ1-42-induced neuron apoptosis (MTS cell viability); type: cell-based, ICR mice; details: for cell survival rate level: different concentrations with Aβ1-42 (5 μM), 24 hours, compared to control treated with Aβ1-42 alone, FIG. 2; for neuron apoptosis inhibition efficacy: same concentration of CBDA, CBD, THCA and THC, Memantine as positive control, FIG. 3
Protocol: Specifically, primary neuronal cells derived from ICR mice were seeded in 96-wells at 5×10^5 cells per well and cultured for 6 days. Afterwards, the six compounds of Example 1 above were treated at different concentrations and Aβ1-42 (5 μM) was treated to induce neuron apoptosis, and the cells were treated together for 24 hours. Afterwards, a MTS solution was added to the medium and incubated for 2 hours. Cytotoxicity (cell viability) was measured using a microplate spectrophotometer (Bio-Tek Power Wave XS, Winooski, VT, USA), and absorbance was measured at 490 nm.
Next, the neuron apoptosis inhibition efficacy for the same concentration of CBDA, CBD, THCA and THC was evaluated using the same method as above. Memantine, known as an Alzheimer's treatment, was used as a positive control group.

Row | Structure (SMILES) | identification rate (OLT) [1] | time investigating the object moved to a different location [1] | intracellular calcium ion concentration [2] | expression level of p-TrKB in hippocampal tissues [3] | expression level of BDNF in hippocampal tissues [4] | identification rate (NOR) [5] | time investigating the novel object [5] | expression level of APP [6] | expression level of oligomeric Aβ [7] | expression level of polymeric Aβ [7] | expression level of AB [7] | cell survival rate level [8] | neuron apoptosis inhibition efficacy [8]
1 | CCCCCc1cc2c(c(O)c1C(=O)O)[C@@H]1C=C(C)CC[C@H]1C(C)(C)O2 [THCA, (6aR, 10aR)-1-Hydroxy-6,6,9-trimethyl-3-pentyl-6a,7,8,10a-tetrahydro-6H-benzo[c]chromene-2-carboxylic acid] | significantly increased | spent more time | significantly reduced | significantly increased | significantly increased | significantly increased | spent more time | significantly reduced | significantly reduced | significantly reduced | significantly reduced | significantly increased | better neuron apoptosis inhibition efficacy
2 | C=C(C)[C@@H]1CCC(C)=C[C@H]1c1c(O)cc(CCCCC)c(C(=O)O)c1O [CBDA] | significantly increased | spent more time | significantly reduced | significantly increased | significantly increased | significantly increased | spent more time | significantly reduced | significantly reduced | significantly reduced | significantly reduced | significantly increased | better neuron apoptosis inhibition efficacy
